Experimental data from ChEMBL document CHEMBL1135430, “Synthesis of 3,4-dihydro-2H-1,2,4-benzo-thiadiazine 1,1-dioxide derivatives as potential allosteric modulators of AMPA/kainate receptors” (2002).

Organism: Rattus norvegicus
Assay: Variation of kainate-activated (KA) currents in primary cultures of cerebellar granule neurons at 1 mM using patch-clamp technique
Type: functional
Compound `CN(C)c1ccc(C2Nc3ccccc3S(=O)(=O)N2)cc1` (stereo unspecified) has a Variation of -1%.
Work on `O=S1(=O)NC(c2ccc(O)cc2)Nc2ccc(Cl)cc21` (stereo unspecified) yielded a Variation of -51%.
With `O=S1(=O)NC(CCl)Nc2ccccc21` (stereo unspecified) the Variation was -22%.
For `O=S1(=O)NC(C(F)(F)F)Nc2ccccc21` (stereo unspecified), the Variation was 70%.
`O=S1(=O)NC(c2ccccc2)Nc2ccccc21` (stereo unspecified) showed a Variation of -34%.
In the case of `O=S1(=O)NC(CCl)Nc2ccc(Cl)cc21` (stereo unspecified), the Variation is reported as -26%.
`O=S1(=O)NC(c2ccc(O)cc2)Nc2ccccc21` (stereo unspecified) gave a Variation of -60%.
Work on `CC1Nc2ccc(Cl)cc2S(=O)(=O)N1` (stereo unspecified) yielded a Variation of 115%.
`CN(C)c1ccc(C2Nc3ccc(Cl)cc3S(=O)(=O)N2)cc1` (stereo unspecified) showed a Variation of -1%.
Work on `O=S1(=O)NC(C(F)(F)F)Nc2ccc(Cl)cc21` (stereo unspecified) yielded a Variation of 72%.
For `NS(=O)(=O)c1cc2c(cc1Cl)NC(C1CC3C=CC1C3)NS2(=O)=O` (stereo unspecified) [CYCLOTHIAZIDE], the Variation was 111%.
